Measured values taken from patent US20240270762A1, “PENICILLIN-BINDING PROTEIN INHIBITORS” (priority 2021, published 2024).
Values after ≈ are worked out from the molar mass of the structure shown.

Legend:
A. baumannii PBP2 = A. baumannii PBP2 (Acinetobacter baumannii, UniProt D0C8Z9); assay: Bocillin-FL competition binding via gel filtration, A. baumannii PBP2
How it was run: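 Enzyme pre-incubated with increasing inhibitor concentrations, then Bocillin-FL added for 15 min further incubation. Bocillin-FL-bound PBP separated by gel filtration and fluorescence read. EC50 from fitting fraction PBP bound vs inhibitor concentration to a Hill-type equation (ymin, ymax, n).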

A. baumannii ATCC 17978 = assay: microbe, parasite or virus in culture; assay type: cell-based; details: Acinetobacter baumannii, ATCC17978, read-out: MIC, A. baumannii ATCC 17978
A. baumannii CDC-0036 = assay: microbe, parasite or virus in culture; assay type: cell-based; details: Acinetobacter baumannii, CDC0036, read-out: MIC, A. baumannii CDC-0036
P. aeruginosa CDC-0110 = assay: microbe, parasite or virus in culture; assay type: cell-based; details: Pseudomonas aeruginosa, CDC0110, read-out: Minimum inhibitory concentration, P. aeruginosa CDC-0110
[1] = molecular target: T1, PBP3 from Pseudomonas aeruginosa (PAO1) (Pseudomonas aeruginosa, UniProt G3XD46); assay: Bocillin-FL fluorescence polarization competition binding, P. aeruginosa PBP3; details: Binding affinity to P. aeruginosa PBP3; fluorescence polarization competition binding assay using Bocillin-FL; read-out: P. aeruginosa PBP3 Potency
T1 construct: made in house
T1 sequence (G3XD46 whole entry): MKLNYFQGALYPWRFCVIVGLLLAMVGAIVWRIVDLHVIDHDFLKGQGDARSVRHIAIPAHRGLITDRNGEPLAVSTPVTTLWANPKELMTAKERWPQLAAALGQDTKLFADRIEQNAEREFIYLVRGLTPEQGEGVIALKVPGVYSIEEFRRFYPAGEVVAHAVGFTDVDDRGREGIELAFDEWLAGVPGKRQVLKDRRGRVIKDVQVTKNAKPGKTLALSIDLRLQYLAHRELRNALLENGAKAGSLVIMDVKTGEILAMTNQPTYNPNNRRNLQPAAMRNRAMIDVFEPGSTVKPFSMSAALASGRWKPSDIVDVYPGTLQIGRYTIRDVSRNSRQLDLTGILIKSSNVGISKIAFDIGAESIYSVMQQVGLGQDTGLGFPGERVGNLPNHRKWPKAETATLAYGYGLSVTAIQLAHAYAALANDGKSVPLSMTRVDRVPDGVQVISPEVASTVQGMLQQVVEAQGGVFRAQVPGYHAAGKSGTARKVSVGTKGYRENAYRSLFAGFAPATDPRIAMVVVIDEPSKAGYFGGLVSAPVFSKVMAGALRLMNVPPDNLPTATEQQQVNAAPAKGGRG
How it was run: (§1)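 Purified PBPs pre-incubated with inhibitor (E. coli PBP3 1.5 μM, 30 min; P. aeruginosa PBP3 0.75 μM, A. baumannii PBP1a 1 μM and PBP3 0.2 μM, 15 min), then Bocillin-FL 0.1 μM (0.05 μM for PBP1a) added; FP read up to 60 min. EC50 = concentration halving bound Bocillin-FL.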

[2] = system: P. aeruginosa (ΔmexAB-oprM); assay: Broth microdilution MIC in iron-depleted CAMHB (IDM); assay type: cell-based; details: Pseudomonas aeruginosa; iron-depleted CAMHB (IDM); […]; read-out: Minimum inhibitory concentration, P. aeruginosa ΔmexAB-oprM
[3] = molecular target: T2, PBP3 from Acinetobacter baumannii (ATCC 19606) (Acinetobacter baumannii, UniProt A0ABX6CK25); assay: Bocillin-FL fluorescence polarization competition binding, A. baumannii PBP3; details: fluorescence polarization competition binding assay using Bocillin-FL; read-out: A. baumannii PBP3 Potency
T2 sequence (A0ABX6CK25 64-610): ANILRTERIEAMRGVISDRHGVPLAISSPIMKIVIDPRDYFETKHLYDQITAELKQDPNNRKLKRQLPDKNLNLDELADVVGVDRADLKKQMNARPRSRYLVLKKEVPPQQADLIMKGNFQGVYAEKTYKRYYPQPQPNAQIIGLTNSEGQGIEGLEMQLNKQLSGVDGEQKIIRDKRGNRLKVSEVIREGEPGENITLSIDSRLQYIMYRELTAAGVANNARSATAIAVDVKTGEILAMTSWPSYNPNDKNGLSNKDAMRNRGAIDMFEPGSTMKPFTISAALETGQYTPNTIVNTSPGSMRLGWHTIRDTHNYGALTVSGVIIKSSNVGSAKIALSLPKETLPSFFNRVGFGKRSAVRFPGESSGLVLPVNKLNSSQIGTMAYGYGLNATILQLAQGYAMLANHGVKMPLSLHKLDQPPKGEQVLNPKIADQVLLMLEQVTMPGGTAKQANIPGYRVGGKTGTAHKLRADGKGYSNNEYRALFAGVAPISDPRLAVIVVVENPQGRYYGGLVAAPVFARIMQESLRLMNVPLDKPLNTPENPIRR
How it was run: as §1

A. baumannii 1258916 = assay: microbe, parasite or virus in culture; assay type: cell-based, Acinetobacter baumannii; details: Acinetobacter baumannii, 1258916, read-out: MIC, A. baumannii 1258916

Chain of A. baumannii PBP2 (D0C8Z9 whole entry): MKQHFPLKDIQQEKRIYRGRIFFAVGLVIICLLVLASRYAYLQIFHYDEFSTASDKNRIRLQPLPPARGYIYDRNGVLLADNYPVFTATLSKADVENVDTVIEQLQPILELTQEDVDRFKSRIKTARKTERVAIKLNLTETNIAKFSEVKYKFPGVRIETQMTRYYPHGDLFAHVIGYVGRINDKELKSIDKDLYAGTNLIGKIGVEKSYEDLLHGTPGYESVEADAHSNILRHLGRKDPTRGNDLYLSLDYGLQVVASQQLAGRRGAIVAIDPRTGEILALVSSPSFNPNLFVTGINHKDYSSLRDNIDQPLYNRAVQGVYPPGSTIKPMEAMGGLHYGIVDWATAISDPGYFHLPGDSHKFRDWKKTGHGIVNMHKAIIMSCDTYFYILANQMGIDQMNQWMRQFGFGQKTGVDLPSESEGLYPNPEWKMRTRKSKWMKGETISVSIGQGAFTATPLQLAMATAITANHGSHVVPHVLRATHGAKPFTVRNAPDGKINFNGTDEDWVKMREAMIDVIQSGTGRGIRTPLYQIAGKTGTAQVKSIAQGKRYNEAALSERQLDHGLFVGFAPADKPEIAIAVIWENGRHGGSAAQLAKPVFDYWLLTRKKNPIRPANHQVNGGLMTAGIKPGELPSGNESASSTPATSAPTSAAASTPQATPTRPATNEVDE

Work on `O=C(NCCCN1CCN(C(=O)NC(C(=O)N[C@H]2Cc3ccc(F)c(C(=O)O)c3OB2O)c2cc(F)c(O)c(O)c2Cl)C(=O)C1=O)c1c(F)cncc1F` (stereo partly drawn) [Example 402, (3R)-3-(2-(2-chloro-5-fluoro-3,4-dihydroxyphenyl)-2-(4-(3-(3,5-difluoroisonicotinamido)propyl)-2,3-dioxopiperazine-1-carboxamido)acetamido)-7-fluoro-2-hydroxy-3,4-dihydro-2H-benzo[e][1,2]oxaborinine-8-carboxylic acid] yielded an EC50 (A. baumannii PBP2) of 10 to 50 µM, an MIC (A. baumannii ATCC 17978) of less than 1 µg/mL and an MIC (A. baumannii CDC-0036) of 2 to 4 µg/mL (≈ 2.56 to 5.12 µM). The MIC (P. aeruginosa CDC-0110) was less than 1 µg/mL, the IC50 [1] was less than 10 µM and the MIC [2] was less than 1 µg/mL. For the same molecule, the IC50 [3] was less than 10 µM and the MIC (A. baumannii 1258916) was 2 to 4 µg/mL (≈ 2.56 to 5.12 µM).
`O=C(NCCCN1CCN(C(=O)NC(C(=O)N[C@H]2Cc3ccc(F)c(C(=O)O)c3OB2O)c2cc(F)c(O)c(O)c2Cl)C(=O)C1=O)c1c(F)cncc1Cl` (stereo partly drawn) [Example 403, (3R)-3-(2-(2-chloro-5-fluoro-3,4-dihydroxyphenyl)-2-(4-(3-(3-chloro-5-fluoroisonicotinamido)propyl)-2,3-dioxopiperazine-1-carboxamido)acetamido)-7-fluoro-2-hydroxy-3,4-dihydro-2H-benzo[e][1,2]oxaborinine-8-carboxylic acid] was tested, and the EC50 (A. baumannii PBP2) was 10 to 50 µM, the MIC (A. baumannii ATCC 17978) was less than 1 µg/mL and the MIC (A. baumannii CDC-0036) was 2 to 4 µg/mL (≈ 2.51 to 5.02 µM). It also gave an MIC (P. aeruginosa CDC-0110) of less than 1 µg/mL, an IC50 [1] of less than 10 µM and an MIC [2] of less than 1 µg/mL. The IC50 [3] was less than 10 µM and the MIC (A. baumannii 1258916) was 2 to 4 µg/mL (≈ 2.51 to 5.02 µM).
With `O=C(NCCCN1CCN(C(=O)NC(C(=O)N[C@H]2Cc3ccc(F)c(C(=O)O)c3OB2O)c2cc(F)c(O)c(O)c2Cl)C(=O)C1=O)c1cc(F)c(F)c(O)c1F` (stereo partly drawn) [Example 404, (3R)-3-(2-(2-chloro-5-fluoro-3,4-dihydroxyphenyl)-2-(2,3-dioxo-4-(3-(2,4,5-trifluoro-3-hydroxybenzamido)propyl)piperazine-1-carboxamido)acetamido)-7-fluoro-2-hydroxy-3,4-dihydro-2H-benzo[e][1,2]oxaborinine-8-carboxylic acid] the EC50 (A. baumannii PBP2) was less than 10 µM, the MIC (A. baumannii ATCC 17978) was less than 1 µg/mL and the MIC (A. baumannii CDC-0036) was 2 to 4 µg/mL (≈ 2.46 to 4.91 µM). For the same molecule, the MIC (P. aeruginosa CDC-0110) was less than 1 µg/mL, the IC50 [1] was less than 10 µM and the MIC [2] was less than 1 µg/mL. It also gave an IC50 [3] of less than 10 µM and an MIC (A. baumannii 1258916) of 2 to 4 µg/mL (≈ 2.46 to 4.91 µM).
`O=C(NCCCN1CCN(C(=O)NC(C(=O)N[C@H]2Cc3ccc(F)c(C(=O)O)c3OB2O)c2cc(F)c(O)c(O)c2Cl)C(=O)C1=O)c1cccc(O)c1F` (stereo partly drawn) [Example 406, (3R)-3-(2-(2-chloro-5-fluoro-3,4-dihydroxyphenyl)-2-(4.-(3-(2-fluoro-3-hydroxybenzamido)propyl)-2,3-dioxopiperazine-1-carboxamido)acetamido)-7-fluoro-2-hydroxy-3,4-dihydro-2H-benzo[e][1,2]oxaborinine-8-carboxylic acid] showed an EC50 (A. baumannii PBP2) of 10 to 50 µM, an MIC (A. baumannii ATCC 17978) of less than 1 µg/mL and an MIC (A. baumannii CDC-0036) of 2 to 4 µg/mL (≈ 2.57 to 5.14 µM). It also gave an MIC (P. aeruginosa CDC-0110) of less than 1 µg/mL, an IC50 [1] of less than 10 µM and an MIC [2] of less than 1 µg/mL. It also gave an IC50 [3] of less than 10 µM and an MIC (A. baumannii 1258916) of 2 to 4 µg/mL (≈ 2.57 to 5.14 µM).
`O=C(NCCCN1CCN(C(=O)NC(C(=O)N[C@H]2Cc3ccc(F)c(C(=O)O)c3OB2O)c2cc(F)c(O)c(O)c2Cl)C(=O)C1=O)c1cc(O)ccc1F` (stereo partly drawn) [Example 407, (3R)-3-(2-(2-chloro-5-fluoro-3,4-dihydroxyphenyl)-2-(4-(3-(2-fluoro-5-hydroxybenzamido)propyl)-2,3-dioxopiperazine-1-carboxamido)acetamido)-7-fluoro-2-hydroxy-3,4-dihydro-2H-benzo[e][1,2]oxaborinine-8-carboxylic acid] showed an EC50 (A. baumannii PBP2) of 10 to 50 µM, an MIC (A. baumannii ATCC 17978) of less than 1 µg/mL and an MIC (A. baumannii CDC-0036) of 2 to 4 µg/mL (≈ 2.57 to 5.14 µM). For the same molecule, the MIC (P. aeruginosa CDC-0110) was less than 1 µg/mL, the IC50 [1] was less than 10 µM and the MIC [2] was less than 1 µg/mL. For the same molecule, the IC50 [3] was less than 10 µM and the MIC (A. baumannii 1258916) was 2 to 4 µg/mL (≈ 2.57 to 5.14 µM).
